In patent US9308269B2, “Stable liquid formulations of volatile gas anesthetics” (UNIVERSITY OF MIAMI, priority 2011, dated 2016):

How the values were obtained:
[1] = system: Murine insulinoma beta-TC3 (β-TC3) cells; experiment: Anesthetic preconditioning against H2O2 oxidative stress, cell viability by FACS; assay type: cell-based
Description: Murine insulinoma beta-TC3 (β-TC3) cells were used as a surrogate source of β-cells in vitro. […] FIG. 26 is illustrative of the experimental design for the present study. Cells were then harvested and assayed for viability via FACS analysis (Live/Dead far red, and TMRE, mitochondrial fluorescent dye to detect apoptosis). Data was analyzed using ANOVA with post hoc Tukey for multiple comparisons.

p38 MAPK = p38 MAPK activity after H2O2 oxidative stress in β-TC3 cells; assay type: cell-based, murine
Description: Murine insulinoma beta-TC3 (β-TC3) cells were used as a surrogate source of β-cells in vitro. The β-TC3 cells were incubated for 48 hours, and then subdivided into four (4) groups, with three (3) series of cell cultures per group repeated in triplicate. Group 1 were sham cultured β-TC3 cells; group 2 cells were subdivided into those pre-treated with 0.5 mM isoflurane for 15 minutes or 60 minutes without H2O2, followed by an isoflurane washout; group 3 cells were exposed only to 0.3 mM H2O2 for 3 hours; group 4 cells were pre-treated with isoflurane for 15 minutes or 60 minutes, as in group 2, followed by an isoflurane washout and exposure to 0.3 mM H2O2 for 3 hours. FIG. 26 is illustrative of the experimental design for the present study.

[2] = Isoflurane concentration in stored emulsion measured by weight; assay type: physicochemical; details: open container, about 21° C.
Description: A standard curve for determining isoflurane concentration was generated based upon 1 mL mixtures of a base solution, i.e., 2% w/v surfactant plus PBS or HBSS; 10% v/v FC-43; and, various known v/v % isoflurane concentrations. A 1 mL aliquot of each of these mixtures was weighed and compared to its expected weight based on the density of each component, and a predicted density of each mixture. The predicted or expected density of each mixture was determined by the following equation: ρexpected=ν%A*ρA+ν%BρB+ν%CρC
where ρ is the density, and A, B, C are the surfactant solution, PCF or FC-43, and isoflurane, respectively. FIG. 8 is a standard curve generated in accordance with the procedure of this example for the determination of isoflurane concentration by weight. The measured values were compared to the theoretical values, or ρexpected, and a high degree of correlation, R^2>0.99, was observed, as illustrated in FIG. 9.
From the standard curve generated of the mixtures, the content of isoflurane in any emulsion can be determined by weighing a known volume, for example, a 1 mL aliquot. and tabulating the known portions of the weight, e.g., the volume percentages of the base solution and PCF, i.e., FC-43, and calculating the unknown volume by dividing the remaining weight by the density of pure isoflurane. […]

[3] = Isoflurane concentration and loss over time measured by ATR-FTIR (1300-1260 cm^-1); assay type: physicochemical; details: exposed to air
Description: In accordance with the present example, ATR-FTIR spectra were recorded on a PerkinElmer Spectrum 100 FTIR spectrometer equipped with a KBr beam splitter, 1 bounce Universal Di/ZnSe ATR sampling accessory, and electronically, temperature-stabilized fast recovery deuterated triglycine sulfate detector. The spectra generated are an average of four scans at a resolution of 4 cm^−1. Emulsion samples of 50 μL each were obtained from each of the emulsions described below, and the emulsion samples were measured by covering the measurement surface. Standard curves were generated by manufacturing emulsions of known volume percentage isoflurane by gravimetric determination, performing ATR-FTIR measurements and then, taking area under the curve (“AUC”) determinations of peaks in the region specific to fluorine bond vibration (1300-1000 cm^−1). […]
From these peaks, measurements of the area under the curve (“AUC”) for each of the two spectral regions, once again, 1300-1260 cm^−1 and 1225-1011 cm^−1, were used to generate standard curves of isoflurane concentration. […] The two curves were generated to evaluate the possibility of isoflurane loss during the emulsification process, as a comparison between the two standard curves would allow for assessment of error in emulsion manufacture and allow for more accurate quantification. […]

time to essentially complete evaporation [2]	fraction of sample evaporated ([2]; after about 0.2 hours)	time to complete evaporation on ATR-FTIR crystal [3]	SMILES	β-TC3 cell survival compared to controls ([1]; 0.3 mM H2O2 for 3 hours alone)	p38 MAPK activity (p38 MAPK; treatment by H2O2 alone)	β-TC3 cell survival compared to controls ([1]; 0.5 mM isoflurane pretreatment 15 minutes, washout, then 0.3 mM H2O2 for 3 hours)	β-TC3 cell survival compared to controls ([1]; 0.5 mM isoflurane pretreatment 60 minutes, washout, then 0.3 mM H2O2 for 3 hours)	p38 MAPK activity (p38 MAPK; isoflurane pretreatment, compared to cells exposed to H2O2 alone)
			OO [H2O2, hydrogen peroxide]	44±13%	increased protein kinase activity			
over 0.5 hours	~50%	≤ 10 s	FC(F)OC(Cl)C(F)(F)F (centres unmarked) [isoflurane]			98±2%	105±0%	significantly decreased p38 MAPK activity
